Assay results as given in paper PMC11013143, “4-Chloroisocoumarins as Chlamydial Protease Inhibitors and Anti-Chlamydial Agents” (Molecules, 2024).
pIC50: −log10 of the molar value. Like-named read-outs stand apart in the source and are kept apart here.

Tests used:
HEp-2 cells = assay: MTS cell viability assay, HEp-2 cells; assay type: cell-based, human; conditions: 62.5 and 31.25 µM, 24 h
Method: (§1) The cytotoxic effects of the 4-chloroisocoumarin compounds 2a–g and 6a–h (24 h) were tested against HEp-2 and McCoy B cells using the MTS cell viability assay. HEp-2 and McCoy B cells were selected, as these are routinely used for the cultivation of chlamydial species, and low cytotoxicity against host cells is required to evaluate the anti-chlamydial properties of a test compound [27].
(§2) HEp-2 (human epithelial type 2, CCL-23, ATCC®, Virginia, USA) or McCoy B (mouse fibroblast, CRL-1696, ATCC®) cells were grown to 80–100% confluence, and cell density was determined with a haemocytometer. Cells were then diluted to 1 × 10^5 cells/mL, and 100 µL was added to each well in a 96-well plate, with 3 wells left as controls. Cells were grown for 24 h, and the media was removed and then replaced with fresh media containing 0.1% DMSO and the drug for testing in triplicate. Drugs and cells were incubated for 24 h, and then 20 µL of MTS and PMS solution was added and then incubated for a further four hours. Absorbance was measured at 490 nm on a TECAN M200 Infinite plate reader and data were processed using Microsoft Excel^TM with the following equation to determine cell viability relative to DMSO controls. Cellviability%=AbsorbanceDrug−AbsorbanceDye/AbsorbanceDMSO−AbsorbanceDye

[1] = MTS cell viability assay, HEp-2 cells; assay type: cell-based, human; conditions: human, HEp-2 cells, 125 µM, read-out: HEp-2 cell viability, % of DMSO-treated control cells
Method: as §1, §2

[2] = molecular target: T1, Human Leukocyte Elastase (HLE) (Homo sapiens, UniProt P08246); assay: HLE protease inhibition assay; assay type: biochemical; conditions: for Relative Potency against HLE: [IC50 of JO146]/[IC50 test compound]
T1 construct: purchased Athens Research and Technology 16-15-051200
T1 sequence (P08246 30-247 limits assumed): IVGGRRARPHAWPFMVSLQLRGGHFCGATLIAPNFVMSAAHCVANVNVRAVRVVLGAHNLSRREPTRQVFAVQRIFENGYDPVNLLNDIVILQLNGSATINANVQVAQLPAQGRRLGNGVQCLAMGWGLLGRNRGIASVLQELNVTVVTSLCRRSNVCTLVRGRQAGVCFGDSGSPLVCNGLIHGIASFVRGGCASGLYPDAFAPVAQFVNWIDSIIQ
Method: Elastase was purchased from Athens Research and Technology (Cat No. 16-15-051200). Elastase (100 µg) was dissolved in Tris buffer (100 mM Tris, 20 mM CaCl2, pH 8.1, 3.14 mL), giving a concentration of 1.117 µM, and 25 µL was added to each well containing the respective inhibitor. The plate was incubated at 37 °C for 15 min.
N-Suc-AAA-pNA (Sigma Aldrich, Bayswater, Australia, S4760, 100 µL, 1 mg/mL, […]) was added to each well, and the absorbance was monitored every six minutes at 405 nm. The rate of change of absorbance was used as a comparison to controls to determine the % inhibition of protein in Microsoft Excel^TM (v2402), and these values were exported to GraphPad Prism (v8.0.1) for IC50 calculation.

CtHtrA [3] = molecular target: T2, CtHtrA (Chlamydia trachomatis serovar D, UniProt P18584); assay: CtHtrA protease inhibition assay; assay type: biochemical; conditions: for Relative Selectivity: (relative CtHtrA potency)/(relative HLE potency); for pIC50: IC50 against CtHtrA; for pIC50 / Relative Potency against CtHtrA: control JO146; for Relative Potency against CtHtrA: [IC50 of control]/[IC50 test compound]
T2 construct: made in house; host or cells: E. coli BL21(DE3), pET22b
T2 sequence (P18584 17-497): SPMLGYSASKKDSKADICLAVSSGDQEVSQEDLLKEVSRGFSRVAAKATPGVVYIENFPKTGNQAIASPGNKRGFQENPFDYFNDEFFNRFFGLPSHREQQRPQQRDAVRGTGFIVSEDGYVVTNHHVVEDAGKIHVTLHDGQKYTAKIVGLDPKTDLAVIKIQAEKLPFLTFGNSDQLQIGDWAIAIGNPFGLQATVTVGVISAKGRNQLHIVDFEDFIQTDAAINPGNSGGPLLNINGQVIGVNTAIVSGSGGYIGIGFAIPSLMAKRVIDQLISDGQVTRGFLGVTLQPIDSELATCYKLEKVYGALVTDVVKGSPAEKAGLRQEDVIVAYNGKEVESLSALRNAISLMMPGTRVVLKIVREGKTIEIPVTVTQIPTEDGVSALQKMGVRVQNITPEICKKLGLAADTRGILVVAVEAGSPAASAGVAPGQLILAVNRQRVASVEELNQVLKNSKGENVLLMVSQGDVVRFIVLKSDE
Method: The inhibitory activity of compounds 2a–g against CtHtrA was evaluated. […] As these compounds are reportedly covalent inhibitors of serine proteases, a true IC50 is unable to be calculated. Instead, the residual activity of the protease is monitored over time in response to a range of compound concentrations, and an IC50 value is interpolated from a dose–response curve (see Figures S2–S4 and Tables S1 and S2). This IC50 value is then compared to a positive control (JO146 was used for 2a–g, and 2g was used for 6a–h), giving the ‘relative potency’. This is the established method for assessing CtHtrA inhibitory potency. […] This effect may be due to depth restrictions within the S1 subpocket, as kinetic studies on the rates of protease inhibition in HLE were reduced by larger C-3 alkoxy substituents. Chain branching (iso-propyl and sec-butyl substituents) increased the activity, resulting in a 1.4-fold increase for 2e over 2b and a 2.8-fold improvement for 2g over 2c.
CtHtrA was expressed using an procedure adapted from the literature. Recombinant E. coli BL21(DE3) pET22b was grown in LB media containing 100 ug/mL ampicillin to an OD600 of 0.5-0.6 in 5 × 400 mL batches at 37 °C. Isopropyl β-D-1-thioglactopyranoside (1 M, 400 µL, 1 mM final concentration) was added to each flask and incubated at 30 °C with shaking at 150 rpm for an additional 2.5 h. The culture was centrifuged at 4000× g for 15 min at 4 °C, and the cell pellet was harvested and resuspended in lysis buffer (50 mM phosphate, 10 mM imidazole, 500 mM NaCl, 0.1% Triton X-100, 10% glycerol). Lysozyme was added to the suspended cells and was sonicated in 15 cycles of 15 s, with one minute between cycles while maintaining 4 °C, and then centrifuged at 8000× g for 20 min to remove any debris, retaining the supernatant for protein purification.
TALON® metal affinity resin (Takara cat no. 635652, 5 mL) was added to each lysate tube and washed sequentially with lysis buffer (2 × 45 mL) and stringency buffer (4 × 45 mL) and then eluted with elution buffer (2 × 5 mL), allowing incubations at 4 °C for 20 min per wash, and centrifuging at 2500× g and 4 °C between washes to pellet the resin. The eluates were dialyzed in Tris buffer (pH 7.0, 50 mM, 4 L) with magnesium chloride (20 mM) at 4 °C five times over 24 h, with a minimum of three hours per dialysis change. Protein expression and isolation were confirmed with SDS-PAGE Coomassie stained gel, which was examined for the band at the correct size, and a BCA assay to confirm purified protein concentration prior to use.
CtHtrA was added to 25 wells in a black 96-well plate (40–80 µL, 10 µL increments), to which Tris-HCl buffer (50 mM, pH 7.0 with 20 mM MgCl2) was added to bring the total volume to 90 µL for 10 wells and 85 µL for the remaining 15. JO146 (10 µM, 5 µL) was added to 5 wells and JO146 (1 µM, 5 µL) was added to another 5 wells, with DMSO (5 µL) being added to the remaining 5 as a control. The plate was incubated at 37 °C for 10 min before substrate (MCA-ENLHLPLPIIFK-DNP, 10 µL, 1 mg/mL, 50% isopropanol in buffer) was added and analyzed in a TECAN Infinite Pro M200 plate reader with an excitation wavelength of 340 nm and fluorescence measured at 405 nm with four reads per well at 60 s intervals. A minimum volume of CtHtrA granting a fluorescence change of 300 min^−1 was used for subsequent assay.
The determined appropriate volume of CtHtrA in buffer was added to a 96-well non-transparent black plate and diluted to 85 µL with buffer solution. Drug or control (5 µL) at a maximum of 20% DMSO/80% buffer was added to the appropriate well with DMSO controls, and the plate was incubated for 10 min to allow activation by the protein. MCA-ENLHLPLPIIFK-DNP (Mimotopes, Australia, 1 mg/mL, 10 µL) was added and immediately monitored on a TECAN M200 Infinite plate reader at 37 °C every 60 s for 30 min, using the same wavelengths as for the activity evaluation. […]

CtHtrA [4] = molecular target: T2, CtHtrA; set-up: method as in PMID 23796320; conditions: read-out: IC50 against CtHtrA; reversible covalent complex with CtHtrA; cited from earlier work

In the case of `COc1oc(=O)c2ccccc2c1Cl` [Compound 2a, 3-Methoxy-4-chloroisocoumarin], the “effect on HEp-2 cell viability” value (HEp-2 cells) was “did not produce significant effects”, the viability at 24 h, 125 µM [1] was 50% and the pIC50 ([2]; Table S1, variable slope four parameter fit, read-out: IC50 against HLE) was 4.40. For the same molecule, the “Relative Potency against HLE” value [2] was 0.0207, the “Relative Selectivity” value (CtHtrA [3]) was 113.0 and the pIC50 (CtHtrA [3]; Table S2, Batch 1) was 4.51. For the same molecule, the “Relative Potency against CtHtrA” value (CtHtrA [3]) was 2.33.
For `CC(C)[C@H](NC(=O)OC(C)(C)C)C(=O)N1CCCC1C(=O)N[C@@H](C(C)C)P(=O)(Oc1ccccc1)Oc1ccccc1` (some centres unmarked) [JO146, reference compound], the pIC50 (CtHtrA [4]) is given as 4.92, the pIC50 [2] is given as 6.09 and the “Relative Potency against HLE” value [2] is given as 1.00. For the same molecule, the “Relative Selectivity” value (CtHtrA [3]) was 1.00, the pIC50 (CtHtrA [3]; Table S2, Batch 1) was 4.15 and the pIC50 (CtHtrA [3]; Table S2, Batch 2) was 4.22. The “Relative Potency against CtHtrA” value (CtHtrA [3]) was 1.00.
